Measurements from PubChem BioAssay (NCI).
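Cultured in 96-well plates, cells were exposed to test compound for 48 hours across five concentrations. GI50 marks 50% less growth. Definition used: TGI = concentration required for complete inhibition of growth.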

How the values were obtained:
Test in all cases: NCI anticancer screen, dose series, 48 h
RPMI-8226 leukemia = test system: RPMI-8226 leukemia
SR leukemia = test system: SR leukemia
HOP-92 NSCLC = test system: HOP-92 NSCLC
A498 renal = test system: A498 renal
OVCAR-4 ovarian = test system: OVCAR-4 ovarian
K-562 leukemia = test system: K-562 leukemia
KM12 colon = test system: KM12 colon
LOX IMVI melanoma = test system: LOX IMVI melanoma
SK-OV-3 ovarian = test system: SK-OV-3 ovarian
MCF7 breast = test system: MCF7 breast
OVCAR-8 ovarian = test system: OVCAR-8 ovarian
HOP-62 NSCLC = test system: HOP-62 NSCLC
A549 NSCLC = test system: A549 NSCLC
SF-539 CNS = test system: SF-539 CNS
IGROV1 ovarian = test system: IGROV1 ovarian
HCT-116 colon = test system: HCT-116 colon
U251 CNS = test system: U251 CNS
CAKI-1 renal = test system: CAKI-1 renal
OVCAR-5 ovarian = test system: OVCAR-5 ovarian
SN12C renal = test system: SN12C renal
SF-268 CNS = test system: SF-268 CNS
M14 melanoma = test system: M14 melanoma
NCI-H226 lung = test system: NCI-H226 lung
T-47D breast = test system: T-47D breast
MOLT-4 leukemia = test system: MOLT-4 leukemia
NCI-H522 lung = test system: NCI-H522 lung
NCI-H23 lung = test system: NCI-H23 lung
ACHN renal = test system: ACHN renal
NCI-H460 lung = test system: NCI-H460 lung
HCC-2998 colon = test system: HCC-2998 colon
HL-60(TB) leukemia = test system: HL-60(TB) leukemia
SNB-19 CNS = test system: SNB-19 CNS
NCI/ADR-RES ovarian = test system: NCI/ADR-RES ovarian
SF-295 CNS = test system: SF-295 CNS
SK-MEL-5 melanoma = test system: SK-MEL-5 melanoma
SK-MEL-2 melanoma = test system: SK-MEL-2 melanoma
OVCAR-3 ovarian = test system: OVCAR-3 ovarian
786-0 renal = test system: 786-0 renal
RXF 393 renal = test system: RXF 393 renal
PC-3 prostate = test system: PC-3 prostate
EKVX NSCLC = test system: EKVX NSCLC
SK-MEL-28 melanoma = test system: SK-MEL-28 melanoma
SW-620 colon = test system: SW-620 colon
MALME-3M melanoma = test system: MALME-3M melanoma
UO-31 renal = test system: UO-31 renal
HS 578T breast = test system: HS 578T breast
SNB-75 CNS = test system: SNB-75 CNS
TK-10 renal = test system: TK-10 renal
HT29 colon = test system: HT29 colon
UACC-257 melanoma = test system: UACC-257 melanoma
MDA-MB-468 breast = test system: MDA-MB-468 breast
MDA-MB-231 breast = test system: MDA-MB-231 breast
CCRF-CEM leukemia = test system: CCRF-CEM leukemia
MDA-MB-435 = test system: MDA-MB-435
DU-145 prostate = test system: DU-145 prostate
HCT-15 colon = test system: HCT-15 colon
COLO 205 colon = test system: COLO 205 colon
UACC-62 melanoma = test system: UACC-62 melanoma

Compound `COc1ccc2[nH]cc(-c3cc(N)n4nc(-c5cn(C)c6ccccc56)cc4n3)c2c1` has a GI50 (RPMI-8226 leukemia) of 1940 nM, a TGI (RPMI-8226 leukemia) of 5000 nM and a GI50 (SR leukemia) of 343 nM. It also gave a TGI (SR leukemia) of 1730 nM, a GI50 (HOP-92 NSCLC) of 1680 nM and a TGI (HOP-92 NSCLC) of 3240 nM. For the same compound, the GI50 (A498 renal) was 1730 nM, the TGI (A498 renal) was 3230 nM and the GI50 (OVCAR-4 ovarian) was 1700 nM. It also gave a TGI (OVCAR-4 ovarian) of 3190 nM, a GI50 (K-562 leukemia) of 614 nM and a TGI (K-562 leukemia) of 6660 nM. For the same compound, the GI50 (KM12 colon) was 2030 nM, the TGI (KM12 colon) was 4220 nM and the GI50 (LOX IMVI melanoma) was 1760 nM. The TGI (LOX IMVI melanoma) was 3280 nM, the GI50 (SK-OV-3 ovarian) was 1810 nM and the TGI (SK-OV-3 ovarian) was 3360 nM. It also gave a GI50 (MCF7 breast) of 1460 nM, a TGI (MCF7 breast) of 3250 nM and a GI50 (OVCAR-8 ovarian) of 1750 nM. For the same compound, the TGI (OVCAR-8 ovarian) was 3270 nM, the GI50 (HOP-62 NSCLC) was 1890 nM and the TGI (HOP-62 NSCLC) was 3760 nM. For the same compound, the GI50 (A549 NSCLC) was 1540 nM, the TGI (A549 NSCLC) was 2900 nM and the GI50 (SF-539 CNS) was 1610 nM. It also gave a TGI (SF-539 CNS) of 3010 nM, a GI50 (IGROV1 ovarian) of 1620 nM and a TGI (IGROV1 ovarian) of 3050 nM. It also gave a GI50 (HCT-116 colon) of 1540 nM, a TGI (HCT-116 colon) of 3690 nM and a GI50 (U251 CNS) of 1690 nM. It also gave a TGI (U251 CNS) of 3150 nM, a GI50 (CAKI-1 renal) of 1730 nM and a TGI (CAKI-1 renal) of 3120 nM. The GI50 (OVCAR-5 ovarian) was 1730 nM, the TGI (OVCAR-5 ovarian) was 3270 nM and the GI50 (SN12C renal) was 1530 nM. The TGI (SN12C renal) was 2860 nM, the GI50 (SF-268 CNS) was 1940 nM and the TGI (SF-268 CNS) was 4050 nM. The GI50 (M14 melanoma) was 1790 nM, the TGI (M14 melanoma) was 3930 nM and the GI50 (NCI-H226 lung) was 1870 nM. For the same compound, the TGI (NCI-H226 lung) was 4740 nM, the GI50 (T-47D breast) was 2010 nM and the TGI (T-47D breast) was 4430 nM. The GI50 (MOLT-4 leukemia) was 1590 nM, the TGI (MOLT-4 leukemia) was 4380 nM and the GI50 (NCI-H522 lung) was 1520 nM. For the same compound, the TGI (NCI-H522 lung) was 2990 nM, the GI50 (NCI-H23 lung) was 1970 nM and the TGI (NCI-H23 lung) was 3950 nM. The GI50 (ACHN renal) was 1870 nM, the TGI (ACHN renal) was 3430 nM and the GI50 (NCI-H460 lung) was 1900 nM. It also gave a TGI (NCI-H460 lung) of 3620 nM, a GI50 (HCC-2998 colon) of 1940 nM and a TGI (HCC-2998 colon) of 3380 nM. For the same compound, the GI50 (HL-60(TB) leukemia) was 1390 nM, the TGI (HL-60(TB) leukemia) was 3580 nM and the GI50 (SNB-19 CNS) was 1660 nM. It also gave a TGI (SNB-19 CNS) of 3110 nM, a GI50 (NCI/ADR-RES ovarian) of 1890 nM and a TGI (NCI/ADR-RES ovarian) of 3820 nM. For the same compound, the GI50 (SF-295 CNS) was 1780 nM, the TGI (SF-295 CNS) was 3340 nM and the GI50 (SK-MEL-5 melanoma) was 1760 nM. For the same compound, the TGI (SK-MEL-5 melanoma) was 3140 nM, the GI50 (SK-MEL-2 melanoma) was 1670 nM and the TGI (SK-MEL-2 melanoma) was 3130 nM. For the same compound, the GI50 (OVCAR-3 ovarian) was 1800 nM, the TGI (OVCAR-3 ovarian) was 3340 nM and the GI50 (786-0 renal) was 1590 nM. The TGI (786-0 renal) was 3120 nM, the GI50 (RXF 393 renal) was 1740 nM and the TGI (RXF 393 renal) was 3390 nM. It also gave a GI50 (PC-3 prostate) of 1670 nM, a TGI (PC-3 prostate) of 3520 nM and a GI50 (EKVX NSCLC) of 1800 nM. It also gave a TGI (EKVX NSCLC) of 3890 nM, a GI50 (SK-MEL-28 melanoma) of 1780 nM and a TGI (SK-MEL-28 melanoma) of 3230 nM. The GI50 (SW-620 colon) was 1810 nM, the TGI (SW-620 colon) was 3470 nM and the GI50 (MALME-3M melanoma) was 1740 nM. For the same compound, the TGI (MALME-3M melanoma) was 3140 nM, the GI50 (UO-31 renal) was 1460 nM and the TGI (UO-31 renal) was 2780 nM. For the same compound, the GI50 (HS 578T breast) was 2050 nM, the TGI (HS 578T breast) was 4830 nM and the GI50 (SNB-75 CNS) was 1400 nM. For the same compound, the TGI (SNB-75 CNS) was 2810 nM, the GI50 (TK-10 renal) was 1890 nM and the TGI (TK-10 renal) was 3370 nM. The GI50 (HT29 colon) was 1800 nM, the TGI (HT29 colon) was 3220 nM and the GI50 (UACC-257 melanoma) was 1680 nM. For the same compound, the TGI (UACC-257 melanoma) was 3100 nM, the GI50 (MDA-MB-468 breast) was 1570 nM and the TGI (MDA-MB-468 breast) was 3060 nM. The GI50 (MDA-MB-231 breast) was 1510 nM, the TGI (MDA-MB-231 breast) was 2840 nM and the GI50 (CCRF-CEM leukemia) was 1860 nM. It also gave a TGI (CCRF-CEM leukemia) of 6440 nM, a GI50 (MDA-MB-435) of 1770 nM and a TGI (MDA-MB-435) of 3230 nM. For the same compound, the GI50 (DU-145 prostate) was 1820 nM, the TGI (DU-145 prostate) was 3520 nM and the GI50 (HCT-15 colon) was 1230 nM. The TGI (HCT-15 colon) was 2520 nM, the GI50 (COLO 205 colon) was 1790 nM and the TGI (COLO 205 colon) was 3410 nM. For the same compound, the GI50 (UACC-62 melanoma) was 1620 nM and the TGI (UACC-62 melanoma) was 2990 nM.
